# T1: KimA (Bacillus subtilis, UniProt P96589)
# T1 construct: full-length membrane protein, homodimer with swapped cytosolic domains; plasmid pB24KimA, expressed in E. coli LB2003
# T1 sequence (P96589 1-607): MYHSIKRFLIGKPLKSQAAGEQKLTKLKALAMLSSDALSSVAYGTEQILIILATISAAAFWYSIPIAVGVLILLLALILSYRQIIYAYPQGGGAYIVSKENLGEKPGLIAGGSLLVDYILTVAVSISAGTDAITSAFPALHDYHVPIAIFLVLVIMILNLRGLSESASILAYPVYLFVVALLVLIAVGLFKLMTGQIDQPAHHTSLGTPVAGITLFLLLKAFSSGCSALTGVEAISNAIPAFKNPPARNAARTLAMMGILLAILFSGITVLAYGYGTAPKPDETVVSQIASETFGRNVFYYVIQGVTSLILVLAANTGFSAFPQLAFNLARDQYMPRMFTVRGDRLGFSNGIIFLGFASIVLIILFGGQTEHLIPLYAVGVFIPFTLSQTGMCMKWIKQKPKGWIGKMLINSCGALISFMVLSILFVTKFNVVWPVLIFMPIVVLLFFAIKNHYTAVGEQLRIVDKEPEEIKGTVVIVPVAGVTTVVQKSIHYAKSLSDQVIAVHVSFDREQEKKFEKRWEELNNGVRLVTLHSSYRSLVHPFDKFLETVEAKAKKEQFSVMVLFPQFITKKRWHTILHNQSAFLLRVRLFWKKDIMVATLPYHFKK
# B1: K+/H+ symporter KimA from B. subtilis, in DDM, with bound c-di-AMP (natural protein)
# chain: T1 sequence (P96589 1-607)
# notes: KimA, K+/H+ symporter of the KUP family, Bacillus subtilis; expressed from pB24KimA; residues 30-606 are compared in the structures (TMD 30-462, cytosolic domain 462-606); Homodimer with swapped cytosolic domains; A ten-fold molar excess of c-di-AMP was added after purification; The construct has a C-terminal HRV-3C protease site; No cleavage is described for the DDM sample; also called KimA WT; …
# B2: K+/H+ symporter KimA from B. subtilis, reconstituted in amphipols, with bound c-di-AMP (natural protein)
# chain: T1 sequence (P96589 1-607)
# notes: KimA, K+/H+ symporter of the KUP family, Bacillus subtilis; expressed from pB24KimA; released from the Ni-NTA beads by cleavage at the C-terminal HRV-3C protease site; Homodimer with swapped cytosolic domains, upright arrangement of the transmembrane domains; Residues of the 3C site probably remain at the C-terminus after cleavage; also called KimA in amphipols; not shown: His tag (from the …)
# Assays:
# [1] = biological target: T1, KimA; experiment: differential scanning fluorometry (CPM dye); assay type: binding; settings: three-fold molar excess c-di-AMP over KimA; KimA purified from cells co-producing CdaA, in DDM; shift fits 48.1 °C (KimA without CdaA) to 54.7 °C; text calls it a further increase although the CdaA sa
# [2] = biological target: T2, KimA (Bacillus subtilis, UniProt P96589, N237A); experiment: differential scanning fluorometry (CPM dye); settings: c-di-AMP binding to variant; method inferred from the DSF section
# T2 construct: full-length membrane protein, homodimer with swapped cytosolic domains; plasmid pB24KimA, expressed in E. coli LB2003
# [3] = biological target: T1, KimA; experiment: whole-cell K+ uptake in E. coli LB2003 (flame AAS); assay type: cell-based; settings: c-di-AMP made in the cells by co-expressed CdaA (concentration unknown) versus inactive CdaA D171N; 200 mM HEPES TEA pH 7.5; allosteric site in cytosolic domain
# [4] = biological target: T3, KimA (Bacillus subtilis, UniProt P96589, R337A); experiment: whole-cell K+ uptake in E. coli LB2003 (flame AAS); assay type: cell-based; settings: c-di-AMP made in the cells by co-expressed CdaA (concentration unknown) versus inactive CdaA D171N; 200 mM HEPES TEA pH 7.5; allosteric site in cytosolic domain
# T3 construct: full-length membrane protein, homodimer with swapped cytosolic domains; plasmid pB24KimA, expressed in E. coli LB2003
# [5] = biological target: T1, KimA; experiment: cryo-EM structure ([…] Å in DDM, […] Å in amphipols); assay type: binding; settings: two c-di-AMP per dimer, cytosolic domain sites; co-produced with CdaA; ten-fold molar excess added in DDM
# [6] = biological target: the molecule itself; experiment: cryo-EM structure; KimA in DDM at 4.0 mg/ml, purified after co-production with CdaA, ten-fold molar excess of c-di-AMP added after purification; 3.3 Å map with C2 symmetry
# [7] = biological target: the molecule itself; experiment: cryo-EM structure; KimA reconstituted in amphipols (PMAL C8) at 2.25 mg/ml, purified after co-expression with cdaA; 50 mM NaCl, 50 mM KCl, 20 mM Tris-HCl pH 8; 3.8 Å map with C2 symmetry
# T3 sequence (P96589 whole entry R337A, the tested form may be a part): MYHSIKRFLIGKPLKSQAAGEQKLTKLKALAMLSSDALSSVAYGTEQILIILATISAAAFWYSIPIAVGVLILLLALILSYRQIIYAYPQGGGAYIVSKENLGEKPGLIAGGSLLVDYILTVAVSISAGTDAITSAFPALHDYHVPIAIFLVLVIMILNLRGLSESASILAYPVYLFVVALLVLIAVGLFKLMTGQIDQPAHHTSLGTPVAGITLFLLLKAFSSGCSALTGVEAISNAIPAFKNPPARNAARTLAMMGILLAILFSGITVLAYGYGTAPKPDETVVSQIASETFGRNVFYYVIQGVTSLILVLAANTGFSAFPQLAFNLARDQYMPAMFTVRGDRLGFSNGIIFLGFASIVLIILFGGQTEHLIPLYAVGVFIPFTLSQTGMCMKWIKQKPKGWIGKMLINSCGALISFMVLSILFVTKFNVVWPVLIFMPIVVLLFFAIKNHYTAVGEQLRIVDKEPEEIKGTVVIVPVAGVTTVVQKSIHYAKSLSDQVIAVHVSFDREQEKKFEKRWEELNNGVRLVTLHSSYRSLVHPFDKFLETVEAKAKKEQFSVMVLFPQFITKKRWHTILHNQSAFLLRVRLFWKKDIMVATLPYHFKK
# T2 sequence (P96589 whole entry N237A, the tested form may be a part): as the sequence (P96589 whole entry R337A, the tested form may be a part) above, with N237A, A337R counted along it
molecule,measurement,setting,value
Nc1ncnc2c1ncn2[C@@H]1O[C@@H]2COP(=O)(O)O[C@H]3[C@@H](O)[C@H](n4cnc5c(N)ncnc54)O[C@@H]3COP(=O)(O)O[C@H]2[C@H]1O [c-di-AMP],dTm,[1],6.6 °C
same,Tm,[2],while binding of c-di-AMP was still possible
same,% reduction of Vmax,[3],~ 64%
same,% reduction of Vmax,[4],~ 44%
same,"cryo-EM structure (3.3 Å in DDM, 3.8 Å in amphipols)",[5],"two non-protein densities in the CDs, which were modelled as c-di-AMP"
B1,binding result,[6],binds
B2,binding result,[7],binds

# From publication PMC10284832, “Cyclic di-AMP traps proton-coupled K^+ transporters of the KUP family in an inward-occluded conformation” (Nature Communications, 2023)
